From paper PMC11514582, “Leveraging the Aggregated Protein Dye YAT2150 for Malaria Chemotherapy” (Pharmaceutics, 2024)
Where “and” joins values, the source holds several entries; their conditions need not be identical. Equal values may be shown once. Read-outs that look alike come from different tables or passages of the source.

Assays:
[1] = target: CYP3A4 (Homo sapiens, UniProt P08684); experiment: in vitro; settings: microsomes
[2] = test system: LYWIYY peptide; experiment: Transmission electron microscopy of peptide aggregation; format: biochemical, Plasmodium falciparum; settings: 100 nM, 25 µM peptide, 24 h after disaggregation
Protocol: To disaggregate peptides before the assay, 1 mg of lyophilized peptide was dissolved in 1 mL of trifluoroacetic acid (TFA), which, after thoroughly mixing, was evaporated under a N2 stream, and 500 µL of 1,1,1,3,3,3-hexafluoro-2-propanol (HFIP; Honeywell Fluka-Thermo Fisher Scientific, Inc.) were added, mixed well, and evaporated as mentioned before (repeated twice to fully remove TFA). Then, 500 µL of HFIP was added, and the solution was divided into aliquots and placed in a desiccator overnight. Afterward, 500 µL of PBS was added to each aliquot to have a final peptide concentration of 25 µM, and, to ensure minimal aggregation (t0), the samples were sonicated for 10 min in a water bath sonicator (FB15053 ultrasonic bath, Thermo Fisher Scientific, Inc.). To study the effect of YAT2150 on peptide aggregation, the compound was added at a final concentration of 100 nM and incubated for 24 h at 37 °C under stirring at 1400 rpm (t24). For disaggregation analysis, a 25 µM peptide aliquot was first pre-aggregated for 24 h (37 °C, 1400 rpm); after this time, YAT2150 was added at a final concentration of 100 nM, and the samples were incubated for an additional 24 h in the same conditions (t48). Control samples in the absence of YAT2150 were included. A 5-μL drop of each sample was deposited onto a carbon-coated copper grid (Ted Pella, Redding, CA, USA) for 1 h. […]

[3] = cited from earlier work
[4] = cited from earlier work; remark: listed apart in the source
[5] = target: recombinant human cytochrome P450 enzyme CYP3A4 (Homo sapiens, UniProt P08684); experiment: biochemical
recombinant human cytochrome P450 enzyme CYP3A4, sequence (P08684 whole entry): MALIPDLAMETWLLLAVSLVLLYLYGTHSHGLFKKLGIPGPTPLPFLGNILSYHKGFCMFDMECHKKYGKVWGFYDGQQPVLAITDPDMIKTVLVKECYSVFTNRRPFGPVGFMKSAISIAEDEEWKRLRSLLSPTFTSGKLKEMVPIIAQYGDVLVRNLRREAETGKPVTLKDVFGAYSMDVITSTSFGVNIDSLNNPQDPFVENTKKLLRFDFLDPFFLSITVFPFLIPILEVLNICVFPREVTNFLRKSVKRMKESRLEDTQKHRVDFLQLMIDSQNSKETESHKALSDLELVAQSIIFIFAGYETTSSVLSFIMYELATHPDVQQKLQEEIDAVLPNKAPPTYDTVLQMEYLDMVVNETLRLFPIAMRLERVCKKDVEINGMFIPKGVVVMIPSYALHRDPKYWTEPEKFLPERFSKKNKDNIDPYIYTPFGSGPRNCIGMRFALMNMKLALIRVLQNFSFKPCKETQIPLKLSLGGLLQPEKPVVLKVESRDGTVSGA

[6] = test system: P. falciparum asexual blood stages; experiment: microbe, parasite or virus in culture; settings: Plasmodium falciparum
Protocol: The asexual blood stages of P. falciparum parasites of the 3D7 strain (Malaria Research and Reference Reagent Resource Center, Manassas, VA, USA) were cultured in group B human RBCs at 3% hematocrit, which was kept throughout the experiments, and incubated in RPMIc. Parasites were maintained at 37 °C under an atmosphere of 5% O2, 5% CO2, and 90% N2. […] The parasites were then cultured under standard conditions for 48 h, allowing for a complete replication cycle. After the incubation period, 3 µL of culture from each well was mixed with 197 µL of PBS containing 0.1 µM Syto 11 (Thermo Fisher Scientific, Inc.) to obtain a final concentration of 1 × 10^6 to 10 × 10^6 cells/mL. Parasitemia levels were measured using an LSRFortessa flow cytometer equipped with a standard configuration of four lasers and 20 parameters. Single-cell populations were identified on a forward-side scatter plot. […] The inhibition data were then transformed using sigmoidal fitting to determine IC50.
For stage arrest assays, P. falciparum cultures were tightly synchronized in schizont stages by repeated treatment with 70% Percoll (GE Healthcare, Chicago, IL, USA) [26, 27]. […] Pictures were taken with a Nikon Eclipse 50i microscope equipped with a DS-Fi1 camera (Nikon Corporation, Tokyo, Japan).

[7] = Cytotoxicity assay in HEP-G2 (MTT); format: cell-based; settings: human, Hep-G2 cells, read-out: HEP-G2 inhibition (CC50)
Protocol: (§1) THP-1 human acute monocytic leukemia cells and NCI-H460 human lung carcinoma cells were grown in RPMI supplemented with 10% FBS. Hep-G2 human hepatocellular carcinoma cells were cultured in Eagle’s minimum essential medium (EMEM) supplemented with 10% FBS. A2780 human ovarian carcinoma cells were grown in RPMI supplemented with 10% FBS and 2 mM L-glutamine. MCF-7 human breast adenocarcinoma cells were cultured in EMEM containing 2 mM L-glutamine and Earle’s balanced salt solution adjusted with 1.5 g/L sodium bicarbonate, 0.1 mM non-essential amino acids, and 1 mM sodium pyruvate and supplemented with 10% FBS. […] Except for Caco-2 and HUVEC, inhibition of cell growth was evaluated using a protocol based on monitoring the transformation into formazan of the tetrazolium salt of MTT (3-(4,5-dimethylthiazol-2-yl)-2,5-diphenyltretrazolium bromide) by metabolically active cells. […] After 96 further h of incubation in the same conditions, 10 µL of a 5 mg/mL MTT solution in PBS was added to each sample, and the incubation was resumed for another 4 h. […] The absorbance measurement range was framed between one sample containing 4000 cells in plain growth medium (to determine the stable cell concentration) and another sample containing an equal cell number in growth medium supplemented with growth factors (to measure the maximum cell growth at 96 h).

[8] = test system: P. falciparum gametocytes; settings: cited from earlier work
[9] = Cytotoxicity assay in THP-1 (MTT); format: cell-based; settings: human, THP-1 cells, read-out: THP-1 inhibition (CC50)
Protocol: as §1

[10] = test system: P. falciparum asexual blood stages; settings: read-out: in vitro IC50 in P. falciparum cultures, including gametocytes; cited from earlier work
[11] = Cytotoxicity across seven human cell lines; format: cell-based; settings: range over cell types, read-out: CC50 in seven different human cell lines
Protocol: THP-1 human acute monocytic leukemia cells and NCI-H460 human lung carcinoma cells were grown in RPMI supplemented with 10% FBS. Hep-G2 human hepatocellular carcinoma cells were cultured in Eagle’s minimum essential medium (EMEM) supplemented with 10% FBS. A2780 human ovarian carcinoma cells were grown in RPMI supplemented with 10% FBS and 2 mM L-glutamine. MCF-7 human breast adenocarcinoma cells were cultured in EMEM containing 2 mM L-glutamine and Earle’s balanced salt solution adjusted with 1.5 g/L sodium bicarbonate, 0.1 mM non-essential amino acids, and 1 mM sodium pyruvate and supplemented with 10% FBS. […] Except for Caco-2 and HUVEC, inhibition of cell growth was evaluated using a protocol based on monitoring the transformation into formazan of the tetrazolium salt of MTT (3-(4,5-dimethylthiazol-2-yl)-2,5-diphenyltretrazolium bromide) by metabolically active cells. […] The incubation was continued for an additional 12 to 14 h, and absorbance was measured at 595 nm (Tecan M1000 Infinite® Pro, Tecan Trading AG, Männedorf, Switzerland). The absorbance measurement range was framed between one sample containing 4000 cells in plain growth medium (to determine the stable cell concentration) and another sample containing an equal cell number in growth medium supplemented with growth factors (to measure the maximum cell growth at 96 h). […]

[12] = Cytotoxicity assay in Caco-2 (resazurin); format: cell-based; settings: human, read-out: Caco-2 inhibition (CC50)

CYP3A4, sequence (P08684 whole entry): as above

CCN(CC)c1ccc(/C=C/c2cc[n+](CCCCCCCCCC[n+]3ccc(/C=C/c4ccc(N(CC)CC)cc4)c(C)c3)cc2C)cc1 [YAT2150]
inhibition at 30 min, 10 µM [1]: 35 ± 3% | effect on LYWIYY aggregation (TEM) [2]: significantly abolished after 24 h the formation of LYWIYY amyloid fibrils | Stability in human plasma (% remaining after 1 h) ([3]; 1 h): 100.0 ^7% | Stability in human plasma (% remaining after 2 h) ([3]; 2 h): 99.7 ^7% | Stability in human plasma (% remaining after 6 h) ([3]; 6 h): 91.3 ^7% | Transport through Caco-2 AB (Papp) ([4]; apical to basolateral): 207.6 ± 11.6 ^7 nm/s | Transport through Caco-2 Efflux ratio [4]: 0.5 and 0.48 ± 0.03 ^7 | IC50 [5]: 1000 nM | IC50 ([6]; 3D7, 48 h, read-out: IC50 in P. falciparum asexual blood stages): 90.5 ± 7 nM | IC80 ([6]; 3D7, read-out: IC80 (stage arrest assay)): 200 nM | IC50 ([6]; 2 h, read-out: IC50 ± SEM): 224 ± 27 nM | CC50 at 96 h [7]: 2540 ± 80 nM | IC50 ([8]; read-out: in vitro IC50 for P. falciparum gametocyte cultures): ~100 nM | IC50 ([8]; stage I–III (early) gametocytes, read-out: IC50 in P. falciparum stage I–III gametocytes): 95 ± 2 nM | IC50 ([8]; stage V gametocytes, read-out: IC50 in P. falciparum stage V gametocytes (converted)): 103 nM | CC50 at 96 h [9]: 660 ± 10 nM | IC50 [10]: < 100 nM | CC50 [11]: 590 to 18200 nM | CC50 at 48 h [12]: 18200 ± 2600 nM
